According to Sander's compilation of Henry's law constants (doi:10.1021/je960218u):

assay: Henry solubility constant Hcp at 298.15 K (mol/(m3 Pa)); conditions: reference: Shiu and Mackay (1997)

Compound	Henry solubility constant Hcp
Clc1cc(Cl)c(Cl)c(Cl)c1 [1,2,3,5-tetrachlorobenzene]	0.0063
Clc1cccc(Cl)c1Cl [1,2,3-trichlorobenzene]	0.0079
Clc1ccc(Cl)cc1 [1,4-dichlorobenzene]	0.0041
Cc1cccc2c(C)cccc12 [1,5-dimethylnaphthalene]	0.028
Clc1cccc2ccccc12 [1-chloronaphthalene]	0.028
CCCCCCCO [1-heptanol]	0.18
Cc1cccc2ccccc12 [1-methylnaphthalene]	0.041
CC(=O)c1ccccc1 [1-phenylethanone]	0.93
c1ccc2c(c1)Cc1ccccc1-2 [2,3-benzindene]	0.1
Clc1ccc2ccccc2c1 [2-chloronaphthalene]	0.03
CCCCCC(C)=O [2-heptanone]	0.058
CC(C)CO [2-methyl-1-propanol]	0.37
CCCC(C)=O [2-pentanone]	0.12
c1cc2c3c(cccc3c1)CC2 [acenaphthene]	0.062
c1ccc2cc3ccccc3cc2c1 [anthracene]	0.13
c1ccc(-c2ccccc2)cc1 [biphenyl]	0.032
Brc1ccccc1 [bromobenzene]	0.004
Clc1ccccc1 [chlorobenzene]	0.0032
c1ccc2ccccc2c1 [naphthalene]	0.022
c1ccc2c(c1)ccc1ccccc12 [phenanthrene]	0.28
